This passage reports IC50 results from patent publication US9884048B2, “ERK inhibitors” (Merck Sharp & Dohme Corp., priority 2014, dated 2018).

The target of the first assay is phosphorylated active hERK2 enzyme (Homo sapiens (Human), UniProt P28482).
Chain of phosphorylated active hERK2 enzyme (P28482 whole entry): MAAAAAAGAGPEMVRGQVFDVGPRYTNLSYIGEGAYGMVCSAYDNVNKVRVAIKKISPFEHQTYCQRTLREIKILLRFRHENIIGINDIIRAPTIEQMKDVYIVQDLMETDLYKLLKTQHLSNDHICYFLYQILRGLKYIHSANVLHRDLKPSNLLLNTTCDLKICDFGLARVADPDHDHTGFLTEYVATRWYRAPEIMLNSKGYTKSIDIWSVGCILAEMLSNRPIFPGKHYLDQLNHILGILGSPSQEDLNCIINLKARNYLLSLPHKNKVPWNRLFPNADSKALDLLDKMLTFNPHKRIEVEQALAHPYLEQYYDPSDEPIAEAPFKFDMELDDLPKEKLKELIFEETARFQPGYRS
Settings: not given
In the case of `Cc1cc(-n2ncc3cc(NC(=O)N[C@@H](c4ccccc4)C(C)(C)O)nc(CO)c32)ccn1` [Example 254, 1-[7-(hydroxymethyl)-1-(2-methylpyridin-4-yl)-1H-pyrazolo[3,4-c]pyridin-5-yl]-3-[(1S)-2-hydroxy-2-methyl-1-phenylpropyl]urea], the IC50 (in general, the midpoint of a concentration-inhibition curve) stood at 4.29 nM.
For `Cc1cc(-n2ncc3cc(NC(=O)N[C@H]4CCCC[C@H]4c4ccc(F)cc4)ncc32)ccn1` (racemic) [Example 174, Racemic cis 1-[(1S,2S) and (1R,2R)-2-(4-fluorophenyl)cyclohexyl]-3-[1-(2-methylpyridin-4-yl)-1H-pyrazolo[3,4-c]pyridin-5-yl]urea], inhibition was half-maximal at 19.1 nM (IC50).

Staying with this assay, now noted: read-out: ERK2 IC50; IMAP-FP assay; 0.5 nM hERK2, 30 μM ATP; 10 point titration, 3 μM starting concentration.
`Cc1cc(-n2ncc3cc(NC(=O)NC4CCNC4)ncc32)ccn1` (stereo not shown) [Example 133, 1-[1-(2-methylpyridin-4-yl)-1H-pyrazolo[3,4-c]pyridin-5-yl]-3-pyrrolidin-3-ylurea]: the IC50 came out at 456 nM.
Same read-out and setting: to `Cc1cc(-n2ncc3cc(NC(=O)NCCOc4ccccc4F)ncc32)ccn1` [Example 87, 1-[2-(2-fluorophenoxy)ethyl]-3-[1-(2-methylpyridin-4-yl)-1H-pyrazolo[3,4-c]pyridin-5-yl)urea] belongs 6.38 nM; to `Cc1cc(-n2ncc3cc(NC(=O)N[C@H]4CCCC[C@@H]4Cc4ccccc4)ncc32)ccn1` [Example 163, 1-[(1S,2R)-2-benzylcyclohexyl]-3-[1-(2-methylpyridin-4-yl)-1H-pyrazolo[3,4-c]pyridin-5-yl)urea], 39.4 nM; to `Cc1cc(-n2ncc3cc(NC(=O)N[C@H]4CCC[C@@H]4Oc4ccccc4)ncc32)ccn1` [Example 161, 1-[1-(2-methylpyridin-4-yl)-1H-pyrazolo[3,4-c]pyridin-5-yl]-3-[(1S,2S)-2-phenoxycyclopentyl]urea], 13.4 nM.
The same measure, in the same setting: in the case of `Cc1cc(-n2ncc3cc(NC(=O)N[C@H]4CN(CC(F)(F)F)C[C@@H]4c4ccccc4)ncc32)ccn1` [Example 156, 1-[1-(2-methylpyridin-4-yl)-1H-pyrazolo[3,4-c]pyridin-5-yl]-3-[(3R,4S)-4-phenyl-1-(2,2,2-trifluoroethyl)pyrrolidin-3-yl)urea] it was 8.85 nM.
The same measure, in the same setting: in the case of `Cn1ncc2cc(NC(=O)N[C@@H](c3ccccc3)C(C)(C)O)nc(CO)c21` [Example 226, 1-[7-(hydroxymethyl)-1-methyl-1H-pyrazolo[3,4-c]pyridin-5-yl]-3-[(1S)-2-hydroxy-2-methyl-1-phenylpropyl]urea] it was 69.3 nM.
As for `Cc1cc(-n2ncc3cc(NC(=O)NCCOc4ccc(F)cc4)ncc32)ccn1` [Example 85, 1-[2-(4-fluorophenoxy)ethyl]-3-[1-(2-methylpyridin-4-yl)-1H-pyrazolo[3,4-c]pyridin-5-yl)urea], the IC50 came to 15.9 nM.
Same read-out and setting: in the case of `Cc1cc(-n2ncc3cc(NC(=O)NCc4ccccc4)ncc32)ccn1` [Example 58, 1-benzyl-3-[1-(2-methylpyridin-4-yl)-1H-pyrazolo[3,4-c]pyridin-5-yl]urea] it was 8.41 nM; in that of `Cc1cc(-n2ncc3cc(NC(=O)NCc4ccc5c(c4)CNC5=O)ncc32)ccn1` [Example 84, 1-[1-(2-methylpyridin-4-yl)-1H-pyrazolo[3,4-c]pyridin-5-yl]-3-[(1-oxo-2,3-dihydro-1H-isoindol-5-yl)methyl]urea], 17.4 nM.
On the same count and under the same terms, to `Cc1cc(-n2ncc3cc(NC(=O)NCC4CNC4)ncc32)ccn1` [Example 263, 1-(azetidin-3-ylmethyl)-3-(1-(2-methylpyridin-4-yl)-1H-pyrazolo[3,4-c]pyridin-5-yl)urea] belongs 102 nM; to `Cc1cc(-n2ncc3cc(NC(=O)N[C@H]4CN(C)C[C@@H]4c4ccc(F)c(Cl)c4)ncc32)ccn1` [Example 18, 1-[(3R,4S)-4-(3-chloro-4-fluorophenyl)-1-methylpyrrolidin-3-yl]-3-[1-(2-methylpyridin-4-yl)-1H-pyrazolo[3,4-c]pyridin-5-yl)urea], 2.14 nM; to `Cc1cc(-n2ncc3cc(NC(=O)N[C@H]4CN(C)C[C@@H]4Oc4ccc(F)cc4)ncc32)ccn1` [Example 285, 1-[(3S,4S)-4-(4-fluorophenoxy)-1-methylpyrrolidin-3-yl]-3-[1-(2-methylpyridin-4-yl)-1H-pyrazolo[3,4-c]pyridin-5-yl]urea], 16.4 nM.
Same read-out and setting: in the case of `Cc1cc(-n2ncc3cc(NC(=O)N[C@H]4CCCC[C@@H]4N(C)C)ncc32)ccn1` [Example 143, 1-[(1S,2S)-2-(dimethylamino)cyclohexyl]-3-[1-(2-methylpyridin-4-yl)-1H-pyrazolo[3,4-c]pyridin-5-yl)urea] it was 127 nM.
Regarding `Cn1cc(-n2ncc3cc(NC(=O)NCc4ccc(F)cc4)ncc32)cn1` [Example 4, 1-(4-fluorobenzyl)-3-[1-(1-methyl-1H-pyrazol-4-yl)-1H-pyrazolo[3,4-c]pyridin-5-yl)urea], the IC50 turned out to be 41.3 nM.
The same measure, in the same setting: to `Cc1cc(-n2ncc3cc(NC(=O)NC(C)c4ccc(OC(F)(F)F)cc4)ncc32)ccn1` (stereo not shown) [Example 47] belongs 40.3 nM.
Same read-out and setting: in the case of `COc1ccc(CNC(=O)Nc2cc3cnn(-c4ccncc4)c3cn2)cc1` [Example 9, 1-(4-methoxybenzyl)-3-(1-pyridin-4-yl-1H-pyrazolo[3,4-c]pyridin-5-yl)urea] it was 5.3 nM.
The same measure, in the same setting: to `Cc1cc(-n2ncc3cc(NC(=O)N[C@H]4CN(C)C[C@@H]4Oc4cncc(F)c4)ncc32)ccn1` [Example 276, 1-{(3S,4S)-4-[(5-fluoropyridin-3-yl)oxy]-1-methylpyrrolidin-3-yl}-3-[1-(2-methylpyridin-4-yl)-1H-pyrazolo[3,4-c]pyridin-5-yl]urea] belongs 242 nM; to `Cc1cc(-n2ncc3cc(NC(=O)N[C@@H]4CN(C)C5(COC5)[C@H]4c4ccccc4)ncc32)ccn1` [Example 201, 1-[(7S,8S)-5-methyl-8-phenyl-2-oxa-5-azaspiro[3.4]oct-7-yl]-3-[1-(2-methylpyridin-4-yl)-1H-pyrazolo[3,4-c]pyridin-5-yl]urea], 0.689 nM.
As for `Cc1cc(-n2ncc3cc(NC(=O)N[C@@H]4CN(C)C[C@H]4c4ccccc4C(F)(F)F)ncc32)ccn1` [Example 192, 1-[1-(2-methylpyridin-4-yl)-1H-pyrazolo[3,4-c]pyridin-5-yl]-3-{(3S,4R)-1-methyl-4-[2-(trifluoromethyl)-phenyl]pyrrolidin-3-yl}urea], the IC50 was 235 nM.
On the same count and under the same terms, in the case of `COCCNCc1nc(NC(=O)N[C@H](C)c2ccccc2)cc2cnn(-c3ccnc(C)c3)c12` [Example 321, 1-[7-{[(2-methoxyethyl)amino]methyl}-1-(2-methylpyridin-4-yl)-1H-pyrazolo[3,4-c]pyridin-5-yl]-3-[(1R)-1-phenylethyl]urea] it was 103 nM; in that of `Cc1cc(-n2ncc3cc(NC(=O)NC(C)c4ccc(-n5cncn5)cc4)ncc32)ccn1` (stereo not shown) [Example 45, 1-[1-(2-methylpyridin-4-yl)-1H-pyrazolo[3,4-c]pyridin-5-yl]-3-{1-[4-(1H-1,2,4-triazol-1-yl)phenyl]ethyl}urea], 166 nM.
The same measure, in the same setting: to `Cc1cc(-n2ncc3cc(NC(=O)N[C@@H](C)c4ccccn4)ncc32)ccn1` [Example 203, 1-[1-(2-methylpyridin-4-yl)-1H-pyrazolo[3,4-c]pyridin-5-yl]-3-[(1S)-1-pyridin-2-ylethyl]urea] belongs 1180 nM; to `O=C(NCc1cccc(Cl)c1)Nc1cc2cnn(-c3ccncc3)c2cn1` [Example 41, 1-(3-chlorobenzyl)-3-(1-pyridin-4-yl-1H-pyrazolo[3,4-c]pyridin-5-yl)urea], 0.499 nM.
